In ChEMBL document CHEMBL2016517, “3D Pharmacophore Model-Assisted Discovery of Novel CDC7 Inhibitors” (ACS Med Chem Lett, 2011):

Biological target: CDC7/DBF4 (Cell division cycle 7-related protein kinase/Activator of S phase kinase) (Homo sapiens, UniProt O00311)
Test: Inhibition of CDC7/DBF4 using MCM-2 as substrate after 1 hr
Assay type: protein-complex assay

Chain of CDC7/DBF4 (Cell division cycle 7-related protein kinase/Activator of S phase kinase) (Q9UBU7 whole entry): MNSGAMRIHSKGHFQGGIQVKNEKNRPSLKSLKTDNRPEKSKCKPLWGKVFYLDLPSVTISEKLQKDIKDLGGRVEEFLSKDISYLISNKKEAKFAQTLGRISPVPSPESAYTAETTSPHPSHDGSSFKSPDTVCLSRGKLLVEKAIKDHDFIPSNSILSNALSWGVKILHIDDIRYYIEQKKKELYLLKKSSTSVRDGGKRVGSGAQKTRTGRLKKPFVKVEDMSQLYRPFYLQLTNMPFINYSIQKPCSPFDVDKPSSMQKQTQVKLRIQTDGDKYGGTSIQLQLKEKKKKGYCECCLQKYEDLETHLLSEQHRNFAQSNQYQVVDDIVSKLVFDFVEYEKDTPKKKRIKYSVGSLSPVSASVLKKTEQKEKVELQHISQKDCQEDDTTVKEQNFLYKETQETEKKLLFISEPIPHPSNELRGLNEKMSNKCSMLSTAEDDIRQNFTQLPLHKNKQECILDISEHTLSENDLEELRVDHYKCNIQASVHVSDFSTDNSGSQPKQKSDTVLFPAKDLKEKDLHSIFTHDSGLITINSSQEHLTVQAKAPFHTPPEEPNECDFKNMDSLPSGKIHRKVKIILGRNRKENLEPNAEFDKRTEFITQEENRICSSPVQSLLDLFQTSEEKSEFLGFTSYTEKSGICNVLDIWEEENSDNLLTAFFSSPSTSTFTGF
Chain of CDC7/DBF4 (Cell division cycle 7-related protein kinase/Activator of S phase kinase) (O00311 whole entry): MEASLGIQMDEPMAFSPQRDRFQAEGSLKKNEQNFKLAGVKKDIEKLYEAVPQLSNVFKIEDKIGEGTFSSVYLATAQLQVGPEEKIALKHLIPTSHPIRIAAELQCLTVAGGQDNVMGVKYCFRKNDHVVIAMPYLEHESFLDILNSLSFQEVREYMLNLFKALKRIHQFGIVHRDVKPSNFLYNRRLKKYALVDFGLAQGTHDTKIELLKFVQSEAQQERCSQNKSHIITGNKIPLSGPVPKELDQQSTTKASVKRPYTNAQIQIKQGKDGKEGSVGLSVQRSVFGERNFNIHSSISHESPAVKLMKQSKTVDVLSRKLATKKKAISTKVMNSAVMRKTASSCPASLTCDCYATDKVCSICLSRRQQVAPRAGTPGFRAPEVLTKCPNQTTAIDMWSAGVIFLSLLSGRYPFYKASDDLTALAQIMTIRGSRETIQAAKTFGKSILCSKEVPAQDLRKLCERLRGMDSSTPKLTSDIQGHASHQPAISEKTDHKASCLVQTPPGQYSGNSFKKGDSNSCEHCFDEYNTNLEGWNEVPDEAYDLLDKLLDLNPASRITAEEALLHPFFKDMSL

| IC50 [nM] | SMILES |
| --- | --- |
| 1 | O=C1CCC2(CCCCC2)c2sc(-c3cn[nH]c3)cc21 |
| 33 | Nc1cc(-c2cc3c(s2)C2(CCCCC2)CCC3=O)ccn1 |
| 9 | O=C1CCC2(CCCCC2)c2sc(-c3ccncc3)cc21 |
| 33 | O=C1NCCc2sc(-c3ccncc3)cc21 |
| 370 | O=C1NCC2(CCCCC2)c2sc(-c3cc[nH]n3)cc21 |
| > 25000 | Cn1cc(-c2cc3c(s2)C2(CCCCC2)CNC3=O)cn1 |
| 1 | O=C1NCC2(CCCCC2)c2sc(-c3cn[nH]c3)cc21 |
| 1 | O=C1NCC2(CCCCC2)c2sc(-c3ncnc4[nH]cnc34)cc21 |
| > 25000 | CNC(=O)c1cc(-c2cc3c(s2)C2(CCCCC2)CNC3=O)ccn1 |
| > 25000 | CC(=O)Nc1cccc(-c2cc3c(s2)C2(CCCCC2)CNC3=O)c1 |
| 41 | CC(=O)Nc1cc(-c2cc3c(s2)C2(CCCCC2)CNC3=O)ccn1 |
| 8 | Nc1cc(-c2cc3c(s2)C2(CCCCC2)CNC3=O)ccn1 |
| 5100 | O=C1NCC2(CCCCC2)c2sc(-c3cccnc3)cc21 |
| < 1 | O=C1NCC2(CCCCC2)c2sc(-c3ccncc3)cc21 |
| > 25000 | O=C1NCC2(CCCCC2)c2sc(Cl)cc21 |
